In ChEMBL document CHEMBL1201862, “PubChem BioAssay data set” (2004):
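Step 1: Grow cells in 96-well plates. Step 2: Expose to compound for 48 hours at 5 concentrations. Step 3: Interpolate endpoints linearly; if unreached, use highest concentration. GI50: concentration for 50% inhibition of growth.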 Calls of active or inactive are those of the source. Rule as the data show it: active = GI50 up to about 1.1 µM and inactive = higher.

Columns and labels:
Experiment in all cases: NCI-60 cell line screen, 48 h
DMS-114 = tested on: DMS-114
DLD-1 = tested on: DLD-1
KM12 = tested on: KM12
KM-20L2 = tested on: KM-20L2
A549 = tested on: A549
A498 = tested on: A498
UACC-62 = tested on: UACC-62
EKVX = tested on: EKVX
COLO 205 = tested on: COLO 205
ACHN = tested on: ACHN
IGROV-1 = tested on: IGROV-1
UO-31 = tested on: UO-31
TK-10 = tested on: TK-10
NCI-H460 = tested on: NCI-H460
NCI-H23 = tested on: NCI-H23
SW-620 = tested on: SW-620
SK-MEL-5 = tested on: SK-MEL-5
HOP-62 = tested on: HOP-62
OVCAR-4 = tested on: OVCAR-4
SNB-19 = tested on: SNB-19
LXFL 529 = tested on: LXFL 529
HT-29 = tested on: HT-29
HCT-116 = tested on: HCT-116
K562 = tested on: K562
OVCAR-8 = tested on: OVCAR-8
OVCAR-5 = tested on: OVCAR-5
SN12C = tested on: SN12C
RXF 631 = tested on: RXF 631
SNB-78 = tested on: SNB-78
786-0 = tested on: 786-0
NCI-H226 = tested on: NCI-H226
HOP-18 = tested on: HOP-18
LOX IMVI = tested on: LOX IMVI
SK-MEL-2 = tested on: SK-MEL-2
HCT-15 = tested on: HCT-15
SK-MEL-28 = tested on: SK-MEL-28
DMS-273 = tested on: DMS-273
RXF 393 = tested on: RXF 393
CAKI-1 = tested on: CAKI-1
Malme-3M = tested on: Malme-3M
SNB-75 = tested on: SNB-75
MOLT-4 = tested on: MOLT-4
NCI-H522 = tested on: NCI-H522
M19-MEL = tested on: M19-MEL
UACC-257 = tested on: UACC-257
U-251 = tested on: U-251
OVCAR-3 = tested on: OVCAR-3
SF-295 = tested on: SF-295
SF-268 = tested on: SF-268
SF-539 = tested on: SF-539
RPMI-8226 = tested on: RPMI-8226
HCC 2998 = tested on: HCC 2998
M14 = tested on: M14
XF498 = tested on: XF498
SR = tested on: SR
SK-OV-3 = tested on: SK-OV-3
HOP-92 = tested on: HOP-92
CCRF-CEM = tested on: CCRF-CEM

CCOC(=O)[C@H]1Nc2ccc(O)cc2C2c3ccccc3CC21 (some centres undefined)
GI50 (DMS-114): 56.2 µM (inactive)
GI50 (DLD-1): 70.8 µM (inactive)
GI50 (KM12): > 100 µM (inactive)
GI50 (KM-20L2): > 100 µM (inactive)
GI50 (A549): 65.3 µM (inactive)
GI50 (A498): > 100 µM (inactive)
GI50 (UACC-62): 51.3 µM (inactive)
GI50 (EKVX): 42.3 µM (inactive)
GI50 (COLO 205): > 100 µM (inactive)
GI50 (ACHN): 51.4 µM (inactive)
GI50 (IGROV-1): > 100 µM (inactive)
GI50 (UO-31): 98.2 µM (inactive)
GI50 (TK-10): > 100 µM (inactive)
GI50 (NCI-H460): > 100 µM (inactive)
GI50 (NCI-H23): 53.7 µM (inactive)
GI50 (SW-620): > 100 µM (inactive)
GI50 (SK-MEL-5): 33.3 µM (inactive)
GI50 (HOP-62): > 100 µM (inactive)
GI50 (OVCAR-4): 42.1 µM (inactive)
GI50 (SNB-19): > 100 µM (inactive)
GI50 (LXFL 529): 42.6 µM (inactive)
GI50 (HT-29): > 100 µM (inactive)
GI50 (HCT-116): 68.1 µM (inactive)
GI50 (K562): 52.5 µM (inactive)
GI50 (OVCAR-8): > 100 µM (inactive)
GI50 (OVCAR-5): > 100 µM (inactive)
GI50 (SN12C): 87.1 µM (inactive)
GI50 (RXF 631): > 100 µM (inactive)
GI50 (SNB-78): > 100 µM (inactive)
GI50 (786-0): 77.8 µM (inactive)
GI50 (NCI-H226): > 100 µM (inactive)
GI50 (HOP-18): > 100 µM (inactive)
GI50 (LOX IMVI): 81.3 µM (inactive)
GI50 (SK-MEL-2): > 100 µM (inactive)
GI50 (HCT-15): 72.8 µM
GI50 (SK-MEL-28): 34.8 µM (inactive)
GI50 (DMS-273): 59.2 µM (inactive)
GI50 (RXF 393): 17.7 µM (inactive)
GI50 (CAKI-1): > 100 µM (inactive)
GI50 (Malme-3M): > 100 µM (inactive)
GI50 (SNB-75): 36.9 µM (inactive)
GI50 (MOLT-4): 33 µM (inactive)
GI50 (NCI-H522): 61.7 µM (inactive)
GI50 (M19-MEL): 55.1 µM (inactive)
GI50 (UACC-257): 37.7 µM (inactive)
GI50 (U-251): 88.7 µM (inactive)
GI50 (OVCAR-3): 35.2 µM (inactive)
GI50 (SF-295): > 10 µM (inactive)
GI50 (SF-268): > 100 µM (inactive)
GI50 (SF-539): > 100 µM (inactive)
GI50 (RPMI-8226): 43.2 µM (inactive)
GI50 (HCC 2998): 49 µM (inactive)
GI50 (M14): 59.7 µM (inactive)

NC1=NCC(c2ccccn2)C1c1ccc(F)cc1 (centres undefined)
GI50 (DMS-114): > 100 µM (inactive)
GI50 (XF498): > 100 µM (inactive)
GI50 (DLD-1): > 100 µM (inactive)
GI50 (KM12): > 100 µM (inactive)
GI50 (KM-20L2): > 100 µM (inactive)
GI50 (A549): > 100 µM (inactive)
GI50 (SR): > 100 µM (inactive)
GI50 (A498): > 100 µM (inactive)
GI50 (UACC-62): > 100 µM (inactive)
GI50 (SK-OV-3): > 100 µM (inactive)
GI50 (EKVX): > 100 µM (inactive)
GI50 (COLO 205): > 100 µM (inactive)
GI50 (ACHN): > 100 µM (inactive)
GI50 (IGROV-1): > 100 µM (inactive)
GI50 (UO-31): > 100 µM (inactive)
GI50 (TK-10): > 100 µM (inactive)
GI50 (NCI-H460): > 100 µM (inactive)
GI50 (NCI-H23): > 100 µM (inactive)
GI50 (SW-620): > 100 µM (inactive)
GI50 (SK-MEL-5): > 100 µM (inactive)
GI50 (HOP-62): > 100 µM (inactive)
GI50 (OVCAR-4): > 100 µM (inactive)
GI50 (SNB-19): > 100 µM (inactive)
GI50 (LXFL 529): > 100 µM (inactive)
GI50 (HOP-92): > 100 µM (inactive)
GI50 (HT-29): > 100 µM (inactive)
GI50 (HCT-116): > 100 µM (inactive)
GI50 (K562): > 100 µM (inactive)
GI50 (OVCAR-8): > 100 µM (inactive)
GI50 (CCRF-CEM): > 100 µM (inactive)
GI50 (OVCAR-5): > 100 µM (inactive)
GI50 (SN12C): > 100 µM (inactive)
GI50 (RXF 631): > 100 µM (inactive)
GI50 (SNB-78): > 100 µM (inactive)
GI50 (786-0): > 100 µM (inactive)
GI50 (NCI-H226): > 100 µM (inactive)
GI50 (HOP-18): > 100 µM (inactive)
GI50 (LOX IMVI): > 100 µM (inactive)
GI50 (SK-MEL-2): > 100 µM (inactive)
GI50 (SK-MEL-28): > 100 µM (inactive)
GI50 (RXF 393): > 100 µM (inactive)
GI50 (CAKI-1): > 100 µM (inactive)
GI50 (Malme-3M): > 100 µM (inactive)
GI50 (SNB-75): > 100 µM (inactive)
GI50 (MOLT-4): > 100 µM (inactive)
GI50 (NCI-H522): > 100 µM (inactive)
GI50 (M19-MEL): > 100 µM (inactive)
GI50 (UACC-257): > 100 µM (inactive)
GI50 (U-251): > 100 µM (inactive)
GI50 (OVCAR-3): > 100 µM (inactive)
GI50 (SF-295): > 100 µM (inactive)
GI50 (SF-268): > 100 µM (inactive)
GI50 (SF-539): > 100 µM (inactive)
GI50 (RPMI-8226): > 100 µM (inactive)
GI50 (HCC 2998): > 100 µM (inactive)
GI50 (M14): > 100 µM (inactive)
